This is an account of results in ChEMBL document CHEMBL6109146, “Discovery of New Pyrazolone Carbothioamide Derivatives as Potent Antifungal Agents for the Treatment of Candidiasis and Cryptococcosis” (J Med Chem, 2025).

In general, inhibition refers to the change of the read-out against control, counted positive when it falls. One may read the MIC as the lowest concentration found to suppress growth.

Test [1] deals with Cryptococcus neoformans. Kind of test: Induction of ROS accumulation in Cryptococcus neoformans H99 assessed as increase in intracellular ROS level by measuring intense green fluorescence at 4 microg/ml incubated for 24 hrs by DCFH-DA probe based fluorescence microscopic analysis. It is filed as functional, organism-based. The conditions noted are these: dose 4.0 µg/ml.
Test [2] concerns Cryptococcus neoformans. The experiment in a line: Inhibition of melanin production in Cryptococcus neoformans H99 at 0.031 to 1 microg/ml by photographic analysis relative to control. The conditions noted are these: dose 0.031-1 µg/ml. The format is functional, organism-based.
For test [3], the system named is Cryptococcus neoformans. Kind of test: Inhibition of biofilm formation in Cryptococcus neoformans H99 at 32 microg/ml incubated for 24 hrs by XTT reagent based assay relative to control. The format is functional. For orientation: Formazan colour is commonly taken as a measure of viable cells.
For test [4], the system named is Cryptococcus neoformans. Kind of test: Antifungal activity against Cryptococcus neoformans H99 assessed as inhibition of fungal growth in presence of Fe(III) ions. It is filed as functional.
Test [5] concerns Cryptococcus neoformans. The experiment in a line: Antifungal activity against Cryptococcus neoformans H99 infected in cryptococcosis female ICR mouse model assessed as reduction in pyknosis in neuronal nuclei by measuring reduction in staining at 20 mg/kg, ip pre-infected with fungi for 3 hrs followed by compound administration and measured after 5 days by H and E staining based analysis. To be noted: time 5.0 day. The format is functional, organism-based.

Test [6] deals with Cryptococcus neoformans. Kind of test: Effect on intracellular free iron ions level in Cryptococcus neoformans H99 at 4 microg/ml incubated for 24 hrs by absorbance based analysis. It is filed as functional, cell-based. To be noted: dose 4.0 µg/ml.
Test [7] relates to Cryptococcus neoformans. The experiment in a line: Inhibition of capsule formation in Cryptococcus neoformans H99 at 32 microg/ml incubated for 24 hrs by light microscopic analysis. The conditions noted are these: dose 32.0 µg/ml. It is filed as functional, organism-based.
Test [8] deals with Cryptococcus neoformans. Kind of test: Induction of morphological changes in Cryptococcus neoformans H99 assessed as nuclei damage at 4 microg/ml incubated for 8 hrs by transmission electron microscopic analysis. The format is functional, organism-based. The conditions noted are these: dose 4.0 µg/ml.
The test system of test [9] is Nakaseomyces glabratus. Kind of test: Fungicidal activity against Candida glabrata 0161 at 32 microg/ml incubated for 48 hrs by time-kill kinetics analysis. It is filed as functional, organism-based. The conditions noted are these: dose 32.0 µg/ml.
Test [10] has as its system Cryptococcus neoformans. Kind of test: Inhibition of matured biofilm in Cryptococcus neoformans H99 at 2 to 32 microg/ml incubated for 24 hrs by XTT reagent based assay. The conditions noted are these: dose 2-32 µg/ml. It is filed as functional, organism-based.
The test system of test [11] is Cryptococcus neoformans. Kind of test: Induction of oxidative damage in Cryptococcus neoformans H99 assessed as increase in MDA level at 4 microg/ml incubated for 24 hrs relative to control. It is filed as functional. To be noted: dose 4.0 µg/ml.
In test [12] the test system is Cryptococcus neoformans. Kind of test: Induction of morphological changes in Cryptococcus neoformans H99 assessed as organelle damage at 4 microg/ml incubated for 8 hrs by transmission electron microscopic analysis. The format is functional, organism-based. The conditions noted are these: dose 4.0 µg/ml.
The test system of test [13] is Cryptococcus neoformans. The experiment in a line: Induction of morphological changes in Cryptococcus neoformans H99 assessed as cell wall damage at 4 microg/ml incubated for 8 hrs by transmission electron microscopic analysis. The format is functional, organism-based. To be noted: dose 4.0 µg/ml.
Test [14] concerns Nakaseomyces glabratus. Kind of test: Inhibition of matured biofilm in Candida glabrata 0161 at 2 to 32 microg/ml incubated for 24 hrs by XTT reagent based assay. The format is functional, organism-based. To be noted: dose 2-32 µg/ml.
Test [15] has as its system Cryptococcus neoformans. The experiment in a line: Inhibition of urease production in Cryptococcus neoformans H99 at 0.031 to 1 microg/ml by photographic analysis relative to control. It is filed as functional. To be noted: dose 0.031-1 µg/ml.
The subject of test [16] is Cryptococcus neoformans. Kind of test: Antifungal activity against Cryptococcus neoformans H99 infected in cryptococcosis female ICR mouse model assessed as reduction in cysts formation in brain cortex at 20 mg/kg, ip pre-infected with fungi for 3 hrs followed by compound administration and measured after 5 days by H and E staining based analysis. It is filed as functional, organism-based. To be noted: time 5.0 day.

Test [17] concerns Cryptococcus neoformans. The experiment in a line: Antifungal activity against Cryptococcus neoformans H99 assessed as inhibition of fungal growth in presence of 10% serum containing transferrin-bound ferric iron and free iron. The format is functional.
Test [18] has as its system Cryptococcus neoformans. The experiment in a line: Antifungal activity against Cryptococcus neoformans H99 assessed as inhibition of fungal growth in presence of Fe(II) ions. The format is functional.

Molecules are shown by their SMILES. The source made the active and inactive calls. The rule behind the calls is not given here.

As for `OC(Cn1cncn1)(Cn1cncn1)c1ccc(F)cc1F` [FLUCONAZOLE], the outcome in [1], in [5], in [6], in test [8], in [9] and in test [11] was inactive. The outcome in test [12], in test [13] and in test [16] was inactive. Further, the inhibition entry in test [2], in test [7], in test [10] and in test [15] was “inactive” each time. Moreover, in test [3], testing at 32 µg/mL gave an inhibition of 17%. For the same compound, the MIC in [4], in test [17] and in test [18] was 2 µg/mL each time. Moreover, the inhibition entry in [14] was “Moderate_effect”.
